According to patent US9402398B2, “Herbicidal compounds” (SYNGENTA PARTICIPATIONS AG, priority 2012, dated 2016):

Columns and labels:
Assay type in all cases: in vivo
[1] = tested on: Alopecurus myosuroides (ALOMY); experiment: Herbicidal glasshouse test, post-emergence; conditions: post-emergence (sprayed after 8 days cultivation), 1000 g/h, evaluated after 13 days
Description: (§1) Seeds of a variety of test species are sown in standard soil in pots (Alopecurus myosuroides (ALOMY), Setaria faberi (SETFA), Echinochloa crus-galli (ECHCG), Solanum nigrum (SOLNI), Amaranthus retoflexus (AMARE), Ipomoea hederacea (IPOHE)). After cultivation for one day (pre-emergence) or after 8 days cultivation (post-emergence) under controlled conditions in a glasshouse (at 24/16° C., day/night; 14 hours light; 65% humidity), the plants are sprayed with an aqueous spray solution derived from the formulation of the technical active ingredient in acetone/water (50:50) solution containing 0.5% Tween 20 (polyoxyethelyene sorbitan monolaurate, CAS RN 9005-64-5). Compounds are applied at 1000 g/h. The test plants are then grown in a glasshouse under controlled conditions in a glasshouse (at 24/16° C., day/night; 14 hours light; 65% humidity) and watered twice daily. After 13 days for pre and post-emergence, the test is evaluated for the percentage damage caused to the plant. The biological activities are shown in the following table on a five point scale (5=80-100%; 4=60-79%; 3=40-59%; 2=20-39%; 1=0-19%).

[2] = tested on: Amaranthus retoflexus (AMARE); experiment: Herbicidal glasshouse test, post-emergence; conditions: post-emergence (sprayed after 8 days cultivation), 1000 g/h, evaluated after 13 days
Description: as §1

[3] = tested on: Echinochloa crus-galli (ECHCG); experiment: Herbicidal glasshouse test, post-emergence; conditions: post-emergence (sprayed after 8 days cultivation), 1000 g/h, evaluated after 13 days
Description: as §1

[4] = tested on: Ipomoea hederacea (IPOHE); experiment: Herbicidal glasshouse test, post-emergence; conditions: post-emergence (sprayed after 8 days cultivation), 1000 g/h, evaluated after 13 days
Description: as §1

[5] = tested on: Setaria faberi (SETFA); experiment: Herbicidal glasshouse test, post-emergence; conditions: post-emergence (sprayed after 8 days cultivation), 1000 g/h, evaluated after 13 days
Description: as §1

[6] = tested on: Solanum nigrum (SOLNI); experiment: Herbicidal glasshouse test, post-emergence; conditions: post-emergence (sprayed after 8 days cultivation), 1000 g/h, evaluated after 13 days
Description: as §1

[7] = tested on: Alopecurus myosuroides (ALOMY); experiment: Herbicidal glasshouse test, pre-emergence; conditions: pre-emergence (sprayed after cultivation for one day), 1000 g/h, evaluated after 13 days
Description: as §1

[8] = tested on: Amaranthus retoflexus (AMARE); experiment: Herbicidal glasshouse test, pre-emergence; conditions: pre-emergence (sprayed after cultivation for one day), 1000 g/h, evaluated after 13 days
Description: as §1

[9] = tested on: Echinochloa crus-galli (ECHCG); experiment: Herbicidal glasshouse test, pre-emergence; conditions: pre-emergence (sprayed after cultivation for one day), 1000 g/h, evaluated after 13 days
Description: as §1

[10] = tested on: Ipomoea hederacea (IPOHE); experiment: Herbicidal glasshouse test, pre-emergence; conditions: pre-emergence (sprayed after cultivation for one day), 1000 g/h, evaluated after 13 days
Description: as §1

[11] = tested on: Setaria faberi (SETFA); experiment: Herbicidal glasshouse test, pre-emergence; conditions: pre-emergence (sprayed after cultivation for one day), 1000 g/h, evaluated after 13 days
Description: as §1

[12] = tested on: Solanum nigrum (SOLNI); experiment: Herbicidal glasshouse test, pre-emergence; conditions: pre-emergence (sprayed after cultivation for one day), 1000 g/h, evaluated after 13 days
Description: as §1

Cc1cc(C(=O)Nc2nnnn2C)c(=O)n(-c2cccc(C#N)c2)n1 [Compound 1.018]
5 (5=80-100%): percentage damage caused to the plant, five point scale, POST Application ALOMY [1] | percentage damage caused to the plant, five point scale, POST Application AMARE [2] | percentage damage caused to the plant, five point scale, POST Application ECHCG [3] | percentage damage caused to the plant, five point scale, POST Application IPOHE [4] | percentage damage caused to the plant, five point scale, POST Application SETFA [5] | percentage damage caused to the plant, five point scale, POST Application SOLNI [6] | percentage damage caused to the plant, five point scale, PRE Application ALOMY [7] | percentage damage caused to the plant, five point scale, PRE Application AMARE [8] | percentage damage caused to the plant, five point scale, PRE Application ECHCG [9] | percentage damage caused to the plant, five point scale, PRE Application IPOHE [10] | percentage damage caused to the plant, five point scale, PRE Application SETFA [11] | percentage damage caused to the plant, five point scale, PRE Application SOLNI [12]

Cc1cc(C(=O)Nc2nnnn2C)c(=O)n(-c2cc(Cl)ccc2C)n1 [Compound 1.019]
5 (5=80-100%): percentage damage caused to the plant, five point scale, POST Application ALOMY [1] | percentage damage caused to the plant, five point scale, POST Application AMARE [2] | percentage damage caused to the plant, five point scale, POST Application ECHCG [3] | percentage damage caused to the plant, five point scale, POST Application IPOHE [4] | percentage damage caused to the plant, five point scale, POST Application SETFA [5] | percentage damage caused to the plant, five point scale, POST Application SOLNI [6] | percentage damage caused to the plant, five point scale, PRE Application ALOMY [7] | percentage damage caused to the plant, five point scale, PRE Application AMARE [8] | percentage damage caused to the plant, five point scale, PRE Application ECHCG [9] | percentage damage caused to the plant, five point scale, PRE Application IPOHE [10] | percentage damage caused to the plant, five point scale, PRE Application SETFA [11] | percentage damage caused to the plant, five point scale, PRE Application SOLNI [12]

Cc1cc(C(=O)Nc2nnnn2C)c(=O)n(-c2ccc(F)cc2Br)n1 [Compound 1.020]
5 (5=80-100%): percentage damage caused to the plant, five point scale, POST Application ALOMY [1] | percentage damage caused to the plant, five point scale, POST Application AMARE [2] | percentage damage caused to the plant, five point scale, POST Application ECHCG [3] | percentage damage caused to the plant, five point scale, POST Application IPOHE [4] | percentage damage caused to the plant, five point scale, POST Application SETFA [5] | percentage damage caused to the plant, five point scale, POST Application SOLNI [6] | percentage damage caused to the plant, five point scale, PRE Application ALOMY [7] | percentage damage caused to the plant, five point scale, PRE Application AMARE [8] | percentage damage caused to the plant, five point scale, PRE Application ECHCG [9] | percentage damage caused to the plant, five point scale, PRE Application IPOHE [10] | percentage damage caused to the plant, five point scale, PRE Application SETFA [11] | percentage damage caused to the plant, five point scale, PRE Application SOLNI [12]
